This is an account of results in PubChem BioAssay AID372 (MTDP, 2006).

The source made the active and inactive calls. Cut-off read from the data, not from the text of the source: active = inhibition above about 50%; inactive = the rest.

This experiment concerns the target Gag-Pol polyprotein (Human immunodeficiency virus type 1 group M subtype B (isolate HXB2)) (UniProt P04585). Put plainly: RNase H inhibition, HIV 1 Gag Pol polyprotein, FRET biochemical assay, screening (AID 372). The note with it: HIV-1 RT RNase H, FRET RNA/DNA substrate fluorescence.
Turning to `O=C(Nc1sc2c(c1C(=O)Nc1cccc3ccccc13)CCCCC2)c1ccccc1F`, the IC50 (commonly the midpoint of a concentration-inhibition curve) was “inactive”. Take `Cc1sc(NC(=O)C2CCCO2)c(C(N)=O)c1C` (stereo unspecified): the IC50 was 3 µM. The same measure for `Cc1ccc(S(=O)(=O)N=C2C=C(Cl)C(=O)C(Br)=C2)cc1`: 3.1 µM; for `CC1=NN(c2ccc(S(N)(=O)=O)cc2)C(=O)/C1=C/c1ccc(-c2ccc(Cl)cc2Cl)o1`: 3.8 µM. Consider `Oc1c(Br)cc(/C=N/Nc2nnc3c(n2)[nH]c2ccccc23)c(Br)c1O`, for which the IC50 was 4 µM. As to `Cc1cc(-c2ccco2)c(C#N)c(SCC(=O)c2ccc(O)c(O)c2)n1`, the IC50 was 1.4 µM. Then `O=C1NC(=S)N(c2ccccc2F)C(=O)/C1=C/c1ccc(I)o1`, with 6.7 µM; and `Cc1cc(Br)ccc1N1C(=O)/C(=C/c2ccco2)C(=O)NC1=S`, with 7 µM; and `Cc1ccc(NC(=O)c2c(NC(=O)c3ccccc3F)sc3c2CCCCC3)cc1`, with “inactive”. Regarding `CCOc1ccc(C(=O)Nc2ccc3c(c2)C(=O)c2ccccc2C3=O)cc1`, the half-inhibitory concentration (IC50) is 8 µM. Take `O=C(O)C1Nc2c(Cl)cc(Cl)cc2C2C=CCC12` (stereo unspecified): the IC50 is 72 µM. Turning to `O=S(=O)(Nc1cccc(C(F)(F)F)c1)c1ccc2ccccc2c1`, the IC50 is 25 µM. Then `Cc1ccc(C(=O)NC(=S)Nc2ccc(-c3nc4ccccc4s3)cc2)cc1[N+](=O)[O-]`, with 20 µM.

Take `COc1ccccc1NC(=O)c1c(NC(=O)Cc2ccccc2)sc2c1CCCCC2`: the IC50 entry is “inactive”. Then `Cc1cccc(NC(=O)c2c(NC(=O)c3ccc([N+](=O)[O-])cc3)sc3c2CCCC3)c1`, with 1.5 µM; and `Cc1ccc(-c2n[nH]c(=S)n2/N=C/c2ccc(O)c(O)c2O)cc1`, with 1.8 µM. As to `O=C(Nc1ccc(N2CCN(C(=O)c3ccccc3)CC2)cc1)c1ccc(-c2ccccc2)cc1`, the IC50 was 4.2 µM. Turning to `Cc1ccccc1-n1c(O)c(C=C2C=CC=N2)c(=O)[nH]c1=S`, the IC50 was 10.2 µM.

For `Cc1onc(-c2ccccc2)c1C(=O)Nc1sc(C)c(C)c1C(N)=O`, the IC50 entry is “inactive”.

On to `O=C1NN(c2ccc(I)cc2)C(=O)/C1=C\c1ccc(O)c(O)c1`, for which the IC50 was 10.8 µM. For `O=C1C(Cl)=C/C(=N\S(=O)(=O)c2ccccc2)C(Cl)=C1Cl`, the IC50 was 3.8 µM. For the molecule `COc1ccc(NC(=O)c2c(N)sc(-c3ccccc3)c2C)cc1`, the IC50 is 7 µM. On to `CC(C)OC(=O)c1cc(O)c(O)c(O)c1`, for which the IC50 was 1.3 µM. Take `COc1ccccc1N=C(NOCc1ccc(Cl)cc1Cl)c1nonc1N`: the 50% inhibitory concentration (IC50) was 1.7 µM. Then `Cc1ccc(N2C(=O)/C(=C/c3ccc(O)c(O)c3)SC2=S)cc1C`, with 12 µM. In the case of `O=C1NC(=S)N(c2ccc(Cl)cc2)C(=O)/C1=C/c1ccc(Br)o1`, the IC50 is 1.7 µM. The same measure for `C=CCN1C(=O)/C(=C\c2ccc([N+](=O)[O-])o2)C(=O)NC1=S`: 75 µM.

With `O=C1NC(=O)/C(=C/c2ccc(-c3ccc(O)c(C(=O)O)c3)o2)S1`, the IC50 is 4.2 µM. Then `O=C(Oc1ccccc1)Oc1c(Cl)cc2oc(=O)sc2c1Cl`, with 19 µM; and `Cc1sc(NC(=O)c2ccc(Br)o2)c(C(N)=O)c1C`, with 5.5 µM. The same measure for `O=C1/C(=C/c2ccco2)C(=O)N(c2ccc(Br)cc2)C(=S)N1c1ccccc1`: 10.2 µM.

In the case of `COc1ccc2oc(=O)c(-c3csc(Nc4ccc(Br)cc4)n3)cc2c1`, the IC50 was 10.1 µM. Take `O=C1/C(=C\c2ccc(O)c(O)c2)SC(=S)N1c1cccc(Cl)c1`: the IC50 is 4.5 µM. `N#C/C(=C\Nc1ccc(S(=O)(=O)Nc2nccs2)cc1)c1nc(-c2ccc(Cl)cc2)cs1`: the IC50 was 4.1 µM.

With `COc1ccc(N2C(=O)/C(=C\c3cn(CC(=O)Nc4ccccc4)c4ccccc34)C(=O)NC2=S)cc1`, the IC50 is 5 µM.

In the case of `Cc1sc(NC(=O)c2cccc([N+](=O)[O-])c2)c(C(N)=O)c1C`, the IC50 entry was “inactive”. As for `O=C1/C(=C/c2ccc(O)c(O)c2)SC(=S)N1c1ccc(O)cc1`, the IC50 was 3.5 µM. On to `Cc1ccc(-c2c(C#N)c(SCC(=O)c3ccc(O)c(O)c3)nc3c2CCCC3)o1`, for which the IC50 was 6.5 µM. The same measure for `O=C1c2ccccc2C(=O)N1c1ccc(-c2nc3ccc(N4C(=O)c5ccccc5C4=O)cc3[nH]2)cc1`: 4 µM. On to `Cc1sc(NC(=O)C2CC3CCC2C3)c(C(N)=O)c1C` (stereo unspecified), for which the IC50 was 13 µM. `Cc1ccc(C)n1-c1ccc(O)c(C(=O)O)c1`: the IC50 was 9 µM.
